Measured values: patent US20020137929A1, “1 - (3-heterocyclylphenyl) isothiourea, -isourea, -guanidine and -amidine herbicidal agents” (Intellectual Property Department, BASF Aktiengesellschaft, priority 1998, published 2002)

Tests used:
AMBEL (Ragweed, Common) [1] = test: Postemergence herbicidal evaluation; type: in vivo, Ambrosia artemisifolia; details: postemergence
Procedure, shortened: (§1)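 Scores (0–9) reflect plant stand, vigor, malformation, size, chlorosis and general appearance relative to control, read 4 to 5 weeks after treatment and averaged where tests were repeated. Application: about 0.0156–0.500 kg/ha sprayed at 40 psi onto two-week seedlings.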

[2] = test system: CHEAL (Lambsquarters, Common); test: Postemergence herbicidal evaluation; type: in vivo, Chenopodium album; details: postemergence
Procedure, shortened: as §1

[3] = test system: CHEAL (Lambsquarters, Common); test: Preemergence herbicidal evaluation; type: in vivo, Chenopodium album; details: rated 4-5 weeks after treatment
Procedure, shortened: (§2)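 Scores (0–9) reflect visual comparison with control plants for stand, vigor, malformation, size and chlorosis. Compound was applied to the soil after sowing, before emergence, as an aqueous acetone spray (about 0.0156–0.500 kg/ha), and cups were kept in a greenhouse for 4–5 weeks.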

ABUTH (Velvetleaf) = test: Postemergence herbicidal evaluation; type: in vivo, Abutilon theophrasti; details: postemergence
Procedure, shortened: as §1

CASOB (Sicklepod) = test: Preemergence herbicidal evaluation; type: in vivo, Cassia obtusifolia; details: rated 4-5 weeks after treatment
Procedure, shortened: as §2

CYPIR (Rice Flatsedge) = test: Postemergence weed control under flooded paddy conditions; type: in vivo, Cyperus iria; details: postemergence weeds, 3-4 weeks after treatment
Procedure, shortened: (§3)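 With weeds 3 to 5 cm tall and rice at the 1.5 to 2.5 leaf stage, containers were flooded and water held 1.5 to 3 cm above soil. Compounds in 50/50 v/v aqueous/acetone went into the flood water at about 0.0313 to 0.500 kg/ha a.i. Effects were visually rated 0–9 against controls after three to four weeks in the greenhouse.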

CYPSE (Flatsedge) [4] = test: as above; type: in vivo, Cyperus serotinus; details: postemergence weeds, 3-4 weeks after treatment
Procedure, shortened: as §3

CYPSE (Flatsedge) [5] = test: Preemergence weed control under flooded paddy conditions; type: in vivo, Cyperus serotinus; details: rated 3-4 weeks after treatment
Procedure, shortened: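 Seeds or propagules sown in silt loam kept flooded 1.5-3 cm; compounds in 50/50 acetone/water pipetted into flood water at about 0.0313 to 0.500 kg/ha. Greenhouse; visual 0-9 rating versus untreated control 3-4 weeks after treatment.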

ECHCG (Barnyardgrass) = test: Postemergence herbicidal evaluation; type: in vivo, Echinochloa crus-galli; details: postemergence
Procedure, shortened: as §1

[6] = test system: GLXMAW (Soybean, Williams); test: Postemergence herbicidal evaluation; type: in vivo, Glycine max, (L.) Merr. cv Williams; details: postemergence
Procedure, shortened: as §1

AMBEL (Ragweed, Common) [7] = test: Preemergence herbicidal evaluation; type: in vivo, Ambrosia artemisifolia; details: rated 4-5 weeks after treatment
Procedure, shortened: as §2

ORYSAT (Rice, Tebonnet) = test: Postemergence herbicidal evaluation; type: in vivo, Oryza sativa, (L.) Tebonnet; details: postemergence
Procedure, shortened: as §1

GALAP (Galium) = test: Preemergence herbicidal evaluation; type: in vivo, Galium aparine; details: rate 0.0313 kg/ha; rated 4-5 weeks after treatment
Procedure, shortened: as §2

ZEAMX (Corn, Field) = test: Postemergence herbicidal evaluation; type: in vivo, Zea mays; details: postemergence
Procedure, shortened: as §1

Molecule `O=C1CSC(=Nc2cc(N3C(=O)C4=C(CCCC4)C3=O)c(F)cc2Cl)N1c1ccccc1` [Compound 3, N-{4-chloro-2-fluoro-5-[(4-oxo-3-phenyl-2-thiazolidinylidene)amino]phenyl}-1-cyclohexene-1,2-dicarboximide] has an AMBEL herbicidal rating (AMBEL (Ragweed, Common) [1]; rate 0.0313 kg/ha) of 2.0, an AMBEL herbicidal rating (AMBEL (Ragweed, Common) [1]; rate 0.0625 kg/ha) of 0.0 and an AMBEL herbicidal rating (AMBEL (Ragweed, Common) [1]; rate 0.1250 kg/ha) of 6.0. For the same molecule, the AMBEL herbicidal rating (AMBEL (Ragweed, Common) [1]; rate 0.2500 kg/ha) was 6.0, the AMBEL herbicidal rating (AMBEL (Ragweed, Common) [1]; rate 0.5000 kg/ha) was 9.0 and the CHEAL herbicidal rating ([2]; rate 0.0313 kg/ha) was 7.0. For the same molecule, the CHEAL herbicidal rating ([2]; rate 0.0625 kg/ha) was 6.0, the CHEAL herbicidal rating ([2]; rate 0.1250 kg/ha) was 9.0 and the CHEAL herbicidal rating ([2]; rate 0.2500 kg/ha) was 9.0. The CHEAL herbicidal rating ([2]; rate 0.5000 kg/ha) was 9.0, the “CHEAL preemergence herbicidal rating” value ([3]; rate 0.0313 kg/ha) was 6.0 and the “CHEAL preemergence herbicidal rating” value ([3]; rate 0.0625 kg/ha) was 9.0. For the same molecule, the “CHEAL preemergence herbicidal rating” value ([3]; rate 0.1250 kg/ha) was 9.0, the “CHEAL preemergence herbicidal rating” value ([3]; rate 0.2500 kg/ha) was 9.0 and the “CHEAL preemergence herbicidal rating” value ([3]; rate 0.5000 kg/ha) was 9.0. The ABUTH herbicidal rating (ABUTH (Velvetleaf); rate 0.0157 kg/ha) was 6.0, the ABUTH herbicidal rating (ABUTH (Velvetleaf); rate 0.0313 kg/ha) was 6.0 and the ABUTH herbicidal rating (ABUTH (Velvetleaf); rate 0.0625 kg/ha) was 6.0. The ABUTH herbicidal rating (ABUTH (Velvetleaf); rate 0.1250 kg/ha) was 9.0, the ABUTH herbicidal rating (ABUTH (Velvetleaf); rate 0.2500 kg/ha) was 6.0 and the ABUTH herbicidal rating (ABUTH (Velvetleaf); rate 0.5000 kg/ha) was 9.0. For the same molecule, the “CASOB preemergence herbicidal rating” value (CASOB (Sicklepod); rate 0.0313 kg/ha) was 0.0, the “CASOB preemergence herbicidal rating” value (CASOB (Sicklepod); rate 0.0625 kg/ha) was 0.0 and the “CASOB preemergence herbicidal rating” value (CASOB (Sicklepod); rate 0.1250 kg/ha) was 0.0. For the same molecule, the “CASOB preemergence herbicidal rating” value (CASOB (Sicklepod); rate 0.2500 kg/ha) was 0.0, the “CASOB preemergence herbicidal rating” value (CASOB (Sicklepod); rate 0.5000 kg/ha) was 2.0 and the “Herbicidal rating CYPIR” value (CYPIR (Rice Flatsedge); rate 0.0625 kg/ha) was 0.0. For the same molecule, the “Herbicidal rating CYPIR” value (CYPIR (Rice Flatsedge); rate 0.1250 kg/ha) was 0.0, the “Herbicidal rating CYPIR” value (CYPIR (Rice Flatsedge); rate 0.2500 kg/ha) was 0.0 and the “Herbicidal rating CYPIR” value (CYPIR (Rice Flatsedge); rate 0.5000 kg/ha) was 0.5. For the same molecule, the “Herbicidal rating CYPSE” value (CYPSE (Flatsedge) [4]; rate 0.0625 kg/ha) was 0.0, the “Herbicidal rating CYPSE” value (CYPSE (Flatsedge) [4]; rate 0.1250 kg/ha) was 0.0 and the “Herbicidal rating CYPSE” value (CYPSE (Flatsedge) [4]; rate 0.2500 kg/ha) was 0.0. The “Herbicidal rating CYPSE” value (CYPSE (Flatsedge) [4]; rate 0.5000 kg/ha) was 0.0, the “Herbicidal rating CYPSE” value (CYPSE (Flatsedge) [5]; 0.0625 kg/ha) was 0.0 and the “Herbicidal rating CYPSE” value (CYPSE (Flatsedge) [5]; 0.1250 kg/ha) was 0.0. The “Herbicidal rating CYPSE” value (CYPSE (Flatsedge) [5]; 0.2500 kg/ha) was 0.0, the “Herbicidal rating CYPSE” value (CYPSE (Flatsedge) [5]; 0.5000 kg/ha) was 0.0 and the ECHCG herbicidal rating (ECHCG (Barnyardgrass); rate 0.0157 kg/ha) was 0.0. The ECHCG herbicidal rating (ECHCG (Barnyardgrass); rate 0.0313 kg/ha) was 0.0, the ECHCG herbicidal rating (ECHCG (Barnyardgrass); rate 0.0625 kg/ha) was 0.0 and the ECHCG herbicidal rating (ECHCG (Barnyardgrass); rate 0.1250 kg/ha) was 0.0. It also gave an ECHCG herbicidal rating (ECHCG (Barnyardgrass); rate 0.2500 kg/ha) of 0.0, an ECHCG herbicidal rating (ECHCG (Barnyardgrass); rate 0.5000 kg/ha) of 0.0 and a GLXMAW herbicidal rating ([6]; rate 0.0157 kg/ha) of 2.5. For the same molecule, the GLXMAW herbicidal rating ([6]; rate 0.0313 kg/ha) was 3.5, the GLXMAW herbicidal rating ([6]; rate 0.0625 kg/ha) was 3.0 and the GLXMAW herbicidal rating ([6]; rate 0.1250 kg/ha) was 4.0. The GLXMAW herbicidal rating ([6]; rate 0.2500 kg/ha) was 4.0, the GLXMAW herbicidal rating ([6]; rate 0.5000 kg/ha) was 4.5 and the “AMBEL preemergence herbicidal rating” value (AMBEL (Ragweed, Common) [7]; rate 0.0313 kg/ha) was 0.0. For the same molecule, the “AMBEL preemergence herbicidal rating” value (AMBEL (Ragweed, Common) [7]; rate 0.0625 kg/ha) was 0.0, the “AMBEL preemergence herbicidal rating” value (AMBEL (Ragweed, Common) [7]; rate 0.1250 kg/ha) was 2.0 and the “AMBEL preemergence herbicidal rating” value (AMBEL (Ragweed, Common) [7]; rate 0.2500 kg/ha) was 2.0. The “AMBEL preemergence herbicidal rating” value (AMBEL (Ragweed, Common) [7]; rate 0.5000 kg/ha) was 7.0, the ORYSAT herbicidal rating (ORYSAT (Rice, Tebonnet); rate 0.0157 kg/ha) was 2.0 and the ORYSAT herbicidal rating (ORYSAT (Rice, Tebonnet); rate 0.0313 kg/ha) was 2.5. For the same molecule, the ORYSAT herbicidal rating (ORYSAT (Rice, Tebonnet); rate 0.0625 kg/ha) was 3.0, the ORYSAT herbicidal rating (ORYSAT (Rice, Tebonnet); rate 0.1250 kg/ha) was 3.0 and the ORYSAT herbicidal rating (ORYSAT (Rice, Tebonnet); rate 0.2500 kg/ha) was 2.0. For the same molecule, the ORYSAT herbicidal rating (ORYSAT (Rice, Tebonnet); rate 0.5000 kg/ha) was 3.5, the “GALAP preemergence herbicidal rating” value (GALAP (Galium)) was 4.0 and the ZEAMX herbicidal rating (ZEAMX (Corn, Field); rate 0.0157 kg/ha) was 3.0. The ZEAMX herbicidal rating (ZEAMX (Corn, Field); rate 0.0313 kg/ha) was 3.0, the ZEAMX herbicidal rating (ZEAMX (Corn, Field); rate 0.0625 kg/ha) was 3.0 and the ZEAMX herbicidal rating (ZEAMX (Corn, Field); rate 0.1250 kg/ha) was 3.0. It also gave a ZEAMX herbicidal rating (ZEAMX (Corn, Field); rate 0.2500 kg/ha) of 3.5 and a ZEAMX herbicidal rating (ZEAMX (Corn, Field); rate 0.5000 kg/ha) of 3.5.
